What follows are molecules tested against T1, leukotriene A4 hydrolase (LTA4H) (Homo sapiens, UniProt P09960) (assay: Differential scanning fluorimetry (DSF) screen on LTA4H). Details: 500 μM fragment, mean of duplicates.
T1 construct: made in house; host or cells: E. coli BL21 (DE3)
T1 sequence (P09960 1-611): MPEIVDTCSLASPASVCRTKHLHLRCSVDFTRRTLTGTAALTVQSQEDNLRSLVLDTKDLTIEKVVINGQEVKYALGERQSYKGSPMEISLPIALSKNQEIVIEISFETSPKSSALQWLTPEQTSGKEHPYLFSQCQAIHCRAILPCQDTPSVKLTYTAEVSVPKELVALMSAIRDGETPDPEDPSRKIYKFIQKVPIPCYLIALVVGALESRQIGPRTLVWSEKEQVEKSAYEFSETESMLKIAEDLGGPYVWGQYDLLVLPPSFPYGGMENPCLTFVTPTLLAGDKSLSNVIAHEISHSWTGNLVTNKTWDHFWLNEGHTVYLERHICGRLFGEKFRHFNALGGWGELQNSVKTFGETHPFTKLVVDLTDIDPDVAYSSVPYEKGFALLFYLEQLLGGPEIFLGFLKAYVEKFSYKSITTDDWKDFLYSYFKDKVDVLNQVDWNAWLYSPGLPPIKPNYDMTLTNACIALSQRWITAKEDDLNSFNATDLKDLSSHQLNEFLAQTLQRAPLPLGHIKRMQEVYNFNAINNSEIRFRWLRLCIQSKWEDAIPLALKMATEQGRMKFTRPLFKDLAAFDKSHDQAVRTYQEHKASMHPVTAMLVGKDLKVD
Type: binding
Excerpt: For the primary screen of this fragment library, we employed differential scanning fluorimetry (DSF, also known as thermal shift). DSF is generally applicable to a large panel of protein targets and provides a robust, low‐cost screening technology for fragment‐based approaches. ^[20] All five proteins of our interest are soluble and were recombinantly expressed in Escherichia coli. We performed an initial fragment screen on all five targets by DSF. The use of a uniform screening method for all targets ensured consistent data and provided the opportunity to identify false positive hits which interfered with the screening technology. The conditions of the DSF assay were optimized for the desired screening and validated with reference compounds (Table S1 in the Supporting Information). Compounds causing a positive thermal shift ΔT m≥1.0 °C were considered as active.
DSF measurement of the PDFL (single concentration of 500 μM, duplicates, 96‐well format) on the five proteins retrieved 19 fragment hits on sEH, 28 on LTA4H, 12 on 5‐LOX, 16 on RXRα, and 14 on FXR, respectively. Melting point distributions of the screening library for all five targets are depicted in Figure 2. Amongst the hits, three compounds (Table S2) gave a positive signal on all five proteins likely qualifying them as pan assay interference compounds (PAINS). ^[21] Fragments binding to multiple targets (Scheme 1) were identified for seven out of ten target combinations (Figure 2, Table 1). Among them, fragments 4, 6, 7, and 9 match previously identified privileged scaffolds for fatty acid mimetics. ^[14] […] Active ligands containing N‐phenylbenzamide 6 and the N‐phenylbenzylamine 7 have been described for four of the protein targets. Furthermore, indole, which has been characterized as a privileged heterocycle for fatty acid mimetics, ^[14] is present in fragments 5 and 10. Dual 5‐LOX/RXR ligand 1 was present in 5‐LOX inhibitors, while dual FXR/LTA4H modulator 3 is found among known FXR ligands. Fragments 2 (sEH/5‐LOX) and 8 (LTA4H/RXR) are novel scaffolds not appearing in known ligands of any of the five targets.
Figure S3: SDS page of the purified proteins (proteins RXRα and FXR after TEV cleavage) using a 14% polyacrylamide gel, which was stained with coomassi. Precision Plus Protein™ Unstained Protein Standard s (Bio-Rad Laboratories, Inc. ) was used […]
All experiments were performed as duplicates using MicroAmp fast 96 -well plates. Each plate contained 80 different compound wells and 16 DMSO control wells. First 0.8 µl of a 25 mM Preswick Library Fragment dilution in DMSO or pure DMSO were placed in each of the well (final concentration 500 µM). Then 39.2 µl of the master mi x (containing protein, Triton x -100, SYPRO® Orange Protein Gel Stain and buffer that corresponds to the tested protein) were added.
Table S4: Final concentrations in DSF experiments: […]
The measurements were performed using a iCycler iQ™ Single -Color Real Time PCR device with a heat rate of 1 °C per min, an excitation wavelength of 490 nm and an emission wavelength of 570 nm. The first derivation calculated by MyiQ Op tical Software 1.0 was analyzed using Microsoft Office Excel 2013 by comparing the maxima. A shift of 1 °C (in case of 5 -LOX 0.9°C) or more compared to the DMSO control were assumed as potentially binding of the fragment.
(1 picture or pasted object on this page, not shown here)

Row | SMILES | DSF/ΔT m LTA4H
1 | Oc1ccc2cc[nH]c2c1 [Compound 5] | 1.7±0.0 °C
2 | Cc1cc(=O)n(-c2ccc(C)c(C)c2)[nH]1 [Compound 2] | −0.1±2.1 °C
3 | c1ccc(N2CCNCC2)nc1 [Compound 1] | −0.5±0.0 °C
4 | Oc1ccc(-c2ccc(F)cc2F)cc1 [Compound 9] | 0.7±0.0 °C
5 | Cc1ccccc1C(=O)Nc1ccccc1 [Compound 6] | 1.4±1.4 °C
6 | Clc1ccc2c(c1)Nc1ccccc1CC2 [Compound 8] | 1.5±0.0 °C
7 | Fc1ccc(-c2c[nH]c3ccccc23)cc1 [Compound 10] | 2.4±0.0 °C
8 | CCCCOc1cc(C(=O)OC)ccc1N [Compound 3] | 2.5±0.0 °C
9 | CCN(Cc1ccccc1)c1ccccc1 [Compound 7] | 0.5±0.0 °C
10 | Oc1ccc(Cc2ccccc2)cc1 [Compound 4] | 1.5±0.0 °C

Source: paper PMC8049054, “Systematic Assessment of Fragment Identification for Multitarget Drug Design” (Chemmedchem, 2021)
